Data: patent US9951014B2, “Mammalian and bacterial nitric oxide synthase inhibitors” (Northwestern University, priority 2014, dated 2018)
Where two headings read alike, the source gives them in different places.

Legend:
rat nNOS = rat nNOS (Rattus norvegicus (Rat), UniProt P29476); experiment: Oxyhemoglobin NO capture assay with purified NOS; format: biochemical
Method: (§1) The oxyhemoglobin NO assays were performed with purified NOSs using a Biotek Gen5™ microplate reader as previously reported. […] For iNOS, calmodulin and CaCl2 were omitted because iNOS is calcium independent. […] The calculated standard deviations of the assays were less than 10% with all NOSs. […] The selectivity of antagonism of nNOS was determined by calculating the ratios of the Ki values with iNOS or eNOS to those with rat nNOS.

murine iNOS = murine iNOS (Mus musculus (Mouse), UniProt P29477); experiment: Oxyhemoglobin NO capture assay with purified NOS; format: biochemical
Method: as §1

bovine eNOS = bovine eNOS (Bos taurus (Bovine), UniProt P29473); experiment: Oxyhemoglobin NO capture assay with purified NOS; format: biochemical
Method: as §1

bsNOS = bsNOS (Bacillus subtilis (strain 168), UniProt O34453); experiment: Imidazole displacement, spectral binding constant KS
[1] = Plasma pharmacokinetics and brain distribution in mice; format: in vivo, male BALB/c mice; settings: for C0: back extrapolated conc.; for clearance / half-life: 2 mg/kg; for Vd: read-out: Vss
Method: Pharmacokinetic study. A group of forty-eight male mice were divided into two groups: Group 1 (2 mg/kg; i.v.) and Group 2 (10 mg/kg; p.o.) with each group comprising twenty-four mice. […] The blood samples were collected from a set of three mice at each time point in labeled micro centrifuge tubes containing K2EDTA as anticoagulant. Plasma samples were separated by centrifugation of whole blood and stored below −70° C. until bioanalysis. […] Tissue samples were homogenized using ice-cold phosphate buffer saline (pH 7.4) and homogenates were stored below −70° C. until analyzed. The total homogenate volume was three times that of the tissue weight. […] Specific LC-MS/MS and MRM conditions are described below. Pharmacokinetic parameters were calculated using the non-compartmental analysis tool of Phoenix WinNonlin (Version 6.3).

[2] = ratio Ki iNOS / Ki nNOS, Table 13
[3] = ratio Ki eNOS / Ki nNOS, Table 13
[4] = male, BALB/c, mouse, brain, iv, i.v. 2 mg/kg
[5] = male, BALB/c, mouse, iv, i.v. 2 mg/kg, plasma
[6] = male, BALB/c, mouse, plasma, iv, i.v. 2 mg/kg
[7] = male, BALB/c, mouse, po, p.o. 10 mg/kg, plasma
[8] = ratio Ki iNOS / Ki rat nNOS, Table 9
[9] = ratio Ki eNOS / Ki rat nNOS, Table 9

Sequence of bsNOS (O34453 whole entry): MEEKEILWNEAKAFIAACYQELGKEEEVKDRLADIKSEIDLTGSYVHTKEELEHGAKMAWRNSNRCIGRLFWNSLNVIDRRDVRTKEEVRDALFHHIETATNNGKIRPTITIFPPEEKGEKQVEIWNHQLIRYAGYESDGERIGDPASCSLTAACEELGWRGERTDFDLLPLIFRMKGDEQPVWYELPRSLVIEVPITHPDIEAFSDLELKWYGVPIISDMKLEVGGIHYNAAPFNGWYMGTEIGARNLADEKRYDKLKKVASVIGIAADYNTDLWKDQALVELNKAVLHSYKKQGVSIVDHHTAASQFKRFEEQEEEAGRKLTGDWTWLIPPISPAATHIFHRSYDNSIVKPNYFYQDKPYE

Cc1cc(N)nc(CCc2cccc([C@H](N)Cc3cc(C)cc(N)n3)c2)c1 [Compound 3R, (R)-6-(2-Amino-2-(3-(2-(6-amino-4-methylpyridin-2-yl)ethyl)phenyl)ethyl)-4-methylpyridin-2-amine]
Ki (rat nNOS; Table 13, read-out: nNOS Ki): 0.122 µM | Ki (murine iNOS; Table 13, read-out: iNOS Ki): 15.6 µM

Cc1cc(N)nc(CCc2cccc([C@@H](N)Cc3cc(C)cc(N)n3)c2)c1 [Compound 3S, (S)-6-(2-Amino-2-(3-(2-(6-amino-4-methylpyridin-2-yl)ethyl)phenyl)ethyl)-4-methylpyridin-2-amine]
Ki (rat nNOS; Table 13, read-out: nNOS Ki): 0.144 µM | Ki (murine iNOS; Table 13, read-out: iNOS Ki): 17.7 µM

Cc1ccnc(CCc2cccc([C@H](N)Cc3cc(C)cc(N)n3)c2)c1 [Compound 5R, (R)-6-(2-Amino-2-(3-(2-(4-methylpyridin-2-yl)ethyl)phenyl)ethyl)-4-methylpyridin-2-amine]
Ki (rat nNOS; Table 13, read-out: nNOS Ki): 4.37 µM | Ki (murine iNOS; Table 13, read-out: iNOS Ki): > 100 µM | i/n selectivity (murine iNOS; [2]): >22 | e/n selectivity (bovine eNOS; [3]): 240

Cc1ccnc(CCc2cccc([C@@H](N)Cc3cc(C)cc(N)n3)c2)c1 [Compound 5S, (S)-6-(2-Amino-2-(3-(2-(4-methylpyridin-2-yl)ethyl)phenyl)ethyl)-4-methylpyridin-2-amine]
Ki (rat nNOS; Table 13, read-out: nNOS Ki): 0.903 µM | Ki (murine iNOS; Table 13, read-out: iNOS Ki): > 100 µM | i/n selectivity (murine iNOS; [2]): >110 | Ki (bovine eNOS; Table 13, read-out: eNOS Ki): 328 µM | e/n selectivity (bovine eNOS; [3]): 363

Cc1cc(N)nc(CCc2cccc(C(O)Cc3cc(C)cc(N)n3)c2)c1 (centres unmarked) [Compound 10]
Kd (bsNOS; KS bsNOS, imidazole displacement, Tables 1 and 4): 1.89 µM

Cc1cc(N)nc(COC[C@H](N)[C@H](C)OCc2cc(C)cc(N)n2)c1 [Compound 11]
Kd (bsNOS; KS (bsNOS), Table 5): 1.1 ± 0.1 µM

CCN(CCc1cccc(F)c1)Cc1cccc(NC(=N)c2cccs2)c1 [Compound 15]
Kd (bsNOS; KS (bsNOS), Table 5): 119 ± 25 µM

Nc1ccc2cc(CCNCc3cccc(F)c3)ccc2n1 [Compound 16]
Kd (bsNOS; KS (bsNOS), Table 5): 95 ± 20 µM

Nc1ccc2cc(CNCCc3cccc(F)c3)ccc2n1 [Compound 17]
Kd (bsNOS; KS (bsNOS), Table 5): 420 ± 130 µM

Nc1ccc2ccc(CCNCc3cccc(F)c3)cc2n1 [Compound 18]
Kd (bsNOS; KS (bsNOS), Table 5): 0.97 ± 0.04 µM

CNCCN(C)c1cc(C#N)cc(CCc2cc(C)cc(N)n2)c1 [Compound 19c, 3-(2-(6-Amino-4-methylpyridin-2-yl)ethyl)-5-(methyl(2-(methylamino)ethyl)amino)benzonitrile]
Ki (rat nNOS; Table 9, read-out: Ki Rat nNOS): 0.024 µM | Ki (murine iNOS; Table 9, read-out: Ki iNOS): 3.67 µM | Ki (bovine eNOS; Table 9, read-out: Ki eNOS): 24.9 µM | AUClast ([1]; i.v. 2 mg/kg, brain): 789.07 ng·h/g | CL ([1]; i.v. 2 mg/kg, brain): 1.271 L/h/kg | C0 ([1]; i.v. 2 mg/kg, brain): 100.28 ng/g | CL ([1]; i.v. 2 mg/kg, plasma): 11.05 L/h/kg | T1/2 ([1]; i.v. 2 mg/kg, plasma): 1.12 h | clearance [1, 4]: 1.26 L/h/kg | half-life [1, 4]: 24.8 h | Vd ([1]; male, BALB/c, mouse, iv, i.v. 2 mg/kg, brain): 44 L/kg | AUC(0-inf) [1, 5]: 0.181 µg·h/mL | AUC(0-t) [1, 5]: 0.18 µg·h/mL | C0 ([1]; male, BALB/c, mouse, iv, i.v. 2 mg/kg, plasma, read-out: C0): 0.472 µg/mL | Vd [1, 5]: 14.8 L/kg | clearance [1, 6]: 11 L/h/kg | half-life [1, 6]: 1.1 h | Cmax ([1]; male, BALB/c, mouse, po, p.o. 10 mg/kg, brain): 39.3 ng/g | Tmax ([1]; male, BALB/c, mouse, po, p.o. 10 mg/kg, brain, read-out: Tmax): 4 h | AUC(0-inf) [1, 7]: 0.182 µg·h/mL | AUC(0-t) [1, 7]: 0.162 µg·h/mL | Cmax [1, 7]: 0.0508 µg/mL | Tmax ([1]; male, BALB/c, mouse, po, p.o. 10 mg/kg, plasma, read-out: Tmax): 0.25 h | % F (oral bioavailability) ([1]; p.o. 10 mg/kg vs i.v. 2 mg/kg, AUClast used): 18% | AUClast ([1]; p.o. 10 mg/kg, brain): 673.67 ng·h/g | Tmax ([1]; p.o. 10 mg/kg, plasma): 0.25 h

Nc1ccc2ccc(CNCCCc3cccc(F)c3)cc2n1 [Compound 21]
Kd (bsNOS; KS (bsNOS), Table 5): 3.2 ± 0.1 µM

CCNCCN(C)c1cc(C#N)cc(CCc2cc(C)cc(N)n2)c1 [Compound 21a]
Ki (rat nNOS; Table 9, read-out: Ki Rat nNOS): 0.064 µM | Ki (murine iNOS; Table 9, read-out: Ki iNOS): 11.5 µM | i/n selectivity (murine iNOS; [8]): 178.0 | Ki (bovine eNOS; Table 9, read-out: Ki eNOS): 37.6 µM | e/n selectivity (bovine eNOS; [9]): 583.7

Cc1cc(N)nc(CCc2cc(C#N)cc(N(C)CCNC(C)C)c2)c1 [Compound 21b]
Ki (rat nNOS; Table 9, read-out: Ki Rat nNOS): 0.125 µM | Ki (murine iNOS; Table 9, read-out: Ki iNOS): 45.1 µM | i/n selectivity (murine iNOS; [8]): 361.5 | Ki (bovine eNOS; Table 9, read-out: Ki eNOS): 39.9 µM | e/n selectivity (bovine eNOS; [9]): 320.1

Cc1cc(N)nc(CCc2cc(C#N)cc(N(C)CCNC3CC3)c2)c1 [Compound 21c]
Ki (rat nNOS; Table 9, read-out: Ki Rat nNOS): 0.114 µM | Ki (murine iNOS; Table 9, read-out: Ki iNOS): 28 µM | i/n selectivity (murine iNOS; [8]): 246.6 | Ki (bovine eNOS; Table 9, read-out: Ki eNOS): 31.1 µM | e/n selectivity (bovine eNOS; [9]): 274.0

Cc1cc(N)nc(CCc2cc(C#N)cc(N(C)CCc3cccc(F)c3)c2)c1 [Compound 21d]
Ki (rat nNOS; Table 9, read-out: Ki Rat nNOS): 1.8 µM | Ki (murine iNOS; Table 9, read-out: Ki iNOS): 45.3 µM | i/n selectivity (murine iNOS; [8]): 33.7

Cc1cc(N)nc(CCc2cc(C#N)cc(NCCc3cccc(F)c3)c2)c1 [Compound 22, 3-(2-(6-Amino-4-methylpyridin-2-yl)ethyl)-5-((3-fluorophenethyl)amino)benzonitrile]
Kd (bsNOS; KS (bsNOS), Table 5): 62 ± 25 µM

Cc1cc(N)nc(CCc2cc(F)cc(NCCN(C)C)c2)c1 [Compound 23a, N^1-(3-(2-(6-Amino-4-methylpyridin-2-yl)ethyl)-5-fluorophenyl)-N^2,N^2-dimethylethane-1,2-diamine]
Ki (rat nNOS; Table 9, read-out: Ki Rat nNOS): 0.07 µM | Ki (murine iNOS; Table 9, read-out: Ki iNOS): 3.31 µM | i/n selectivity (murine iNOS; [8]): 47.3 | Ki (bovine eNOS; Table 9, read-out: Ki eNOS): 9.58 µM | e/n selectivity (bovine eNOS; [9]): 136.9

CCNCCN(C)c1cc(F)cc(CCc2cc(C)cc(N)n2)c1 [Compound 23b, N^1-(3-(2-(6-Amino-4-methylpyridin-2-yl)ethyl)-5-fluorophenyl)-N^2-ethyl-N^1-methylethane-1,2-diamine]
Ki (rat nNOS; Table 9, read-out: Ki Rat nNOS): 0.032 µM | Ki (murine iNOS; Table 9, read-out: Ki iNOS): 6.38 µM | i/n selectivity (murine iNOS; [8]): 199.4 | Ki (bovine eNOS; Table 9, read-out: Ki eNOS): 17.9 µM | e/n selectivity (bovine eNOS; [9]): 558.4

Cc1cc(N)nc(CCc2cc(F)cc(N(C)CCNC3CC3)c2)c1 [Compound 23c, N^1-(3-(2-(6-Amino-4-methylpyridin-2-yl)ethyl)-5-fluorophenyl)-N^2-cyclopropyl-N^1-methylethane-1,2-diamine]
Ki (rat nNOS; Table 9, read-out: Ki Rat nNOS): 0.05 µM | Ki (murine iNOS; Table 9, read-out: Ki iNOS): 10.9 µM | i/n selectivity (murine iNOS; [8]): 217.8 | Ki (bovine eNOS; Table 9, read-out: Ki eNOS): 6.21 µM | e/n selectivity (bovine eNOS; [9]): 124.3

CCN(CCNC)c1cc(F)cc(CCc2cc(C)cc(N)n2)c1 [Compound 23d, N^1-(3-(2-(6-Amino-4-methylpyridin-2-yl)ethyl)-5-fluorophenyl)-N^1-ethyl-N^2-methylethane-1,2-diamine]
Ki (rat nNOS; Table 9, read-out: Ki Rat nNOS): 0.046 µM | Ki (murine iNOS; Table 9, read-out: Ki iNOS): 5.04 µM | i/n selectivity (murine iNOS; [8]): 109.6 | Ki (bovine eNOS; Table 9, read-out: Ki eNOS): 4.29 µM | e/n selectivity (bovine eNOS; [9]): 93.2

CNCCN(c1cc(F)cc(CCc2cc(C)cc(N)n2)c1)C1CC1 [Compound 23e, N^1-(3-(2-(6-amino-4-methylpyridin-2-yl)ethyl)-5-fluorophenyl)-N^1-cyclopropyl-N^2-methylethane-1,2-diamine]
Ki (rat nNOS; Table 9, read-out: Ki Rat nNOS): 0.056 µM | Ki (murine iNOS; Table 9, read-out: Ki iNOS): 8.33 µM | i/n selectivity (murine iNOS; [8]): 148.7 | Ki (bovine eNOS; Table 9, read-out: Ki eNOS): 7.89 µM | e/n selectivity (bovine eNOS; [9]): 140.9

Cc1cc(N)nc(CCc2cc(F)cc(NCc3cccc(Cl)c3)c2)c1 [Compound 23f, 6-(3-((3-Chlorobenzyl)amino)-5-fluorophenethyl)-4-methylpyridin-2-amine]
Ki (rat nNOS; Table 9, read-out: Ki Rat nNOS): 0.027 µM | Ki (murine iNOS; Table 9, read-out: Ki iNOS): 9.56 µM | i/n selectivity (murine iNOS; [8]): 354.1 | Ki (bovine eNOS; Table 9, read-out: Ki eNOS): 7.08 µM | e/n selectivity (bovine eNOS; [9]): 262.0

Cc1cc(N)nc(CCc2cc(F)cc(NCc3cccnc3)c2)c1 [Compound 23g, 6-(3-Fluoro-5-((pyridin-3-ylmethyl)amino)phenethyl)-4-methylpyridin-2-amine]
Ki (rat nNOS; Table 9, read-out: Ki Rat nNOS): 1.03 µM | Ki (murine iNOS; Table 9, read-out: Ki iNOS): 11 µM | i/n selectivity (murine iNOS; [8]): 10.7 | Ki (bovine eNOS; Table 9, read-out: Ki eNOS): 10.3 µM | e/n selectivity (bovine eNOS; [9]): 10.0

Cc1cc(N)nc(CCc2cc(F)cc(N3CCNCC3)c2)c1 [Compound 23h, 6-(3-Fluoro-5-(piperazin-1-yl)phenethyl)-4-methylpyridin-2-amine]
Ki (rat nNOS; Table 9, read-out: Ki Rat nNOS): 0.058 µM | Ki (murine iNOS; Table 9, read-out: Ki iNOS): 3.51 µM | i/n selectivity (murine iNOS; [8]): 60.2 | Ki (bovine eNOS; Table 9, read-out: Ki eNOS): 4.84 µM | e/n selectivity (bovine eNOS; [9]): 82.8

Cc1cc(N)nc(CCc2cc(F)cc(NC3CCNCC3)c2)c1 [Compound 23i, 6-(3-Fluoro-5-(piperidin-4-ylamino)phenethyl)-4-methylpyridin-2-amine]
Ki (rat nNOS; Table 9, read-out: Ki Rat nNOS): 0.121 µM | Ki (murine iNOS; Table 9, read-out: Ki iNOS): 13.5 µM | i/n selectivity (murine iNOS; [8]): 110.9 | Ki (bovine eNOS; Table 9, read-out: Ki eNOS): 4.89 µM | e/n selectivity (bovine eNOS; [9]): 40.2
